We go through 1 molecule from US9986723B2, “Screen and use of therapeutics for pancreatic ductal adenocarcinoma” (The Board of Regents of the University of Texas System, priority 2014, dated 2018).

In assay [1] the test system is Pan02 tumors. The experiment in a line: Low dose warfarin in drinking water, syngenic orthotopic model. The format is in vivo, mouse. The following applies: warfarin 0.5 mg/L drinking water. How it is done: (§1) (FIG. 23A) Primary tumor burden after therapy with warfarin. Therapy was initiated when implanted tumors were visible by ultrasound (˜10 mm^3) and consisted of control (normal drinking water) or warfarin, administered in the drinking water at 0.5 mg/L (immunocompetent mice: Pan02 (n=4, control; 3, warfarin), KIC (n=10, control; 8, warfarin)) or 1 mg/L (Panc-1 (n=10, control; 8, warfarin), AsPC-1 (n=8, control; 6, warfarin), Capan-1 (n=10, control; 7, warfarin)) and continued for 2-4 weeks until control mice were moribund. Therapy in KIC mice was initiated at 3 weeks of age and continued for 4 weeks. (FIG. 23B) Metastases were determined grossly upon sacrifice and confirmed by histological evaluation of the liver. […] Incidence of metastasis is also indicated. […] Tumor volume determined by serial ultrasound. […] Therapy with mAb 10C9 (250 μg 2×/week) was initiated when tumors were established as above and persisted for 4 weeks. […] Error bars indicate s.e.m.
(§2) Animal studies. […] Mice with established tumors, as determined by sonography were randomized to receive normal drinking water or water containing 1 mg/L (˜3.0 μM) warfarin for experiments in immunocompromised mice and 0.5 mg/L (˜1.5 μM) in experiments in immunocompetent animals with or without gemcitabine 25 mg/kg twice weekly depending on experimental design.

For assay [2], the system named is KIC tumors. The assay is described as follows: Low dose warfarin in drinking water, spontaneous genetic PDA model. The format is in vivo, mouse. The following applies: warfarin 0.5 mg/L drinking water, 4 weeks from 3 weeks of age. Here is the method:
as §1, §2

The test system of assay [3] is AsPC1 tumors. The experiment in a line: Low dose warfarin in drinking water, orthotopic human tumor xenograft. The format is in vivo, mouse. The following applies: warfarin 1 mg/L drinking water. Here is the method: as §1
(§3) Animal studies. All animals were housed in a pathogen-free facility with 24-hour access to food and water. Experiments were approved by, and conducted in accordance with, an IACUC approved protocol at UT Southwestern. LSL-Kras^G12D; Cdkn2a^lox/lox; p48^Cre (KIC) mice were generated as previously described (Ostapoff et al., 2014). Four- to 6-week-old female NOD/SCID and C57/B16 mice were obtained from an on campus supplier. A total of 1×10^6 AsPc-1, Panc-1, Mia Paca2, Capan-1, C5LM2, Mia shLuc and Mia shAxl or 5×10^5 Pan02 cells, were injected orthotopically as described (Ostapoff et al., 2014). Mice with established tumors, as determined by sonography were randomized to receive normal drinking water or water containing 1 mg/L (˜3.0 μM) warfarin for experiments in immunocompromised mice and 0.5 mg/L (˜1.5 μM) in experiments in immunocompetent animals with or without gemcitabine 25 mg/kg twice weekly depending on experimental design.

In assay [4] the test system is Capan-1 tumors. The assay is described as above. The format is in vivo, mouse. How it is done:
as §1, §3

For assay [5], the system named is orthotopic C5LM2 or Mia PaCa-2 tumors. The assay is described as follows: Gemcitabine combinations in mice bearing established orthotopic tumors. The assay is classed as in vivo, mouse. Particulars: combined with gemcitabine.
From the text: as §3

Assay [6] relates to Mia PaCa-2 cells. The experiment in a line: Spheroid assay in matrigel (3D culture). The assay is classed as cell-based, human. Particulars: warfarin 200 ng/ml, 7 days. Here is the method: FIGS. 25A-I. Axl inhibition reduces colony formation and enhances chemotherapy. (FIGS. 25A-C) parental Mia PaCa-2 cells or Mia PaCa-2 cells stably transfected with shRNA targeting Axl (Mia shAxl) were grown as spheroids in matrigel for 7 days in the presence or absence of warfarin (200 ng/ml), n=4/condition. Mia PaCa-2 cell colonies form large stellate colonies characteristic of invasive tumor growth. Colonies and cognate cell projections were imaged (FIG. 25A) with a Nikon Phase contrast microscope using 40× and 200× magnification. Mean total colony number (FIG. 25B) and total colony area+/−s.d. (FIG. 25C) reflective of invasive growth were calculated using Image J image analysis. […] (FIG. 25E) liver metastases were quantified after intrasplenic injection of C5LM2 cells. […] Mice were sacrificed when control treated animals were moribund and primary and metastatic burden was determined. […]
For spheroid assays, matrigel was coated on 18×18 mm glass cover-slides in a 35 mm culture dish, using Reduced Growth Factor Matrigel (BD Bioscience) as described previously (Gjerdrum et al., 2010; Lee et al., 2007). […] Quantitative analysis of 3D organotypic structures was performed using Image J analysis software. Total number of established structures and the ability of established structures to migrate into the BM (Total area) were quantified and compared.

For the molecule `CC(=O)CC(c1ccccc1)c1c(O)c2ccccc2oc1=O` (racemic) [Warfarin], the primary tumor growth entry in assay [1] is “reduced primary tumor growth”; in assay [2] it was “reduced primary tumor growth”; in assay [3] it was “little effect”; in assay [4] (warfarin 1 mg/L drinking water) it was “little effect”. Also, the “response of tumors to warfarin” value in assay [4] (no detectable Axl expression) is “nonresponsive”. In assay [5], the “augmentation of gemcitabine reduction of primary tumor growth and metastatic control” value is “augmented gemcitabine reduction of primary tumor growth”. Besides, the “tumor cell sphere formation and invasiveness in 3D culture” value in assay [6] is given as “inhibited”.
